Measurements taken from patent US8399459B2, “1,4 oxazines as BACE1 and/or BACE2 inhibitors” (Hoffmann-La Roche Inc., priority 2011, dated 2013).

Biological target: T1, BACE2 (Rattus norvegicus, UniProt Q6IE75)
T1 construct: endogenous cellular BACE2 in the Ins1e rat cell line; endogenous in cells; host or cells: INS-TMEM27 (INS1e-derived rat cell line with doxycycline-inducible full-length human TMEM27)
T1 sequence (Q6IE75 63-514): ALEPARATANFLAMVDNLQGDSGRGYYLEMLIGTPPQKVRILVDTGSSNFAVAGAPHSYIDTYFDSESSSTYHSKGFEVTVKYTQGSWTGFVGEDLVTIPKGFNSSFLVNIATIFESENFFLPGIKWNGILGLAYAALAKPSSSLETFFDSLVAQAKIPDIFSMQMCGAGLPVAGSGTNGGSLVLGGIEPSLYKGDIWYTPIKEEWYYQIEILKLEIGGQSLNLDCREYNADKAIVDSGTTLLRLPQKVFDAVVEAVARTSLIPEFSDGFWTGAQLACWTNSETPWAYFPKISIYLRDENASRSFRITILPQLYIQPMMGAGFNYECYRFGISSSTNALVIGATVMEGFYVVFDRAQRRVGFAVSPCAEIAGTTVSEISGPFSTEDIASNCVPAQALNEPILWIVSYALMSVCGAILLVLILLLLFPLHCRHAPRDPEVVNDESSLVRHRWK
Assay: Assay for BACE inhibition by measuring cellular TMEM27 cleavage (INS-TMEM27 cells, ELISA)
Format: cell-based
Settings: INS-TMEM27 (INS1e-derived) cells; shed TMEM27 by ELISA
Description: Assay for BACE Inhibition by Measuring Cellular TMEM27 Cleavage:
The assay uses the principle of inhibition of human TMEM27 cleavage by endogenous cellular BACE2 in the Ins1e rat cell line and shedding from the cell surface into the culture medium, followed by detection in an ELISA assay. Inhibition of BACE2 prevents the cleavage and shedding in a dose-dependent manner.
The stable cell line “INS-TMEM27” represents an INS1e-derived cell line with inducible expression (using the TetOn system) of full-length hTMEM27 in a doxycycline-dependent manner. The cells are cultured throughout the experiment in RPMI1640+Glutamax (Invitrogen) Penicillin/Streptomycin, 10% Fetal bovine serum, […], […], 100 micrograms/ml G418 and 100 microgram/ml hygromycin and are grown inadherent culture at 37° C. in a standard CO2 cell culture incubator.
INS-TMEM27 cells are seeded in 96-well plates. After 2 days in culture, BACE2 inhibitor is added in a range of concentrations as required by the assay and after a further two hours, doxycycline is added to a final concentration of 500 ng/ml. The cells are incubated for a further 46 hours and the supernatant harvested for detection of shed TMEM27.
An ELISA assay (using a pair of mouse anti-human-TMEM27 antibodies, raised against the extracellular domain of TMEM27) is used for detection of TMEM27 in the culture medium. An EC50 for BACE2 inhibition is calculated using the ELISA readout for each inhibitor concentration with standard curve-fitting software such as XLFit for the Excel spreadsheet program.

CC1(c2cccc(-c3cc(Cl)cc(Cl)c3)c2)COCC(N)=N1 (stereo not shown) [Example 32, 5-(3′,5′-Dichloro-biphenyl-3-yl)-5-methyl-5,6-dihydro-2H-[1,4]oxazin-3-ylamine]
IC50: 0.47 µM
